Experimental data reported in PubChem BioAssay (NCI).
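These data come from cells grown in 96-well plates and exposed to compound for 48 hours at five concentrations. TGI: total growth inhibition.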 Where a SMILES comes first, the peptide text is derived from it. The star is where a group is joined. Boc = CC(C)(C)OC(=O)*; Bn = c1ccc(C*)cc1

Legend:
Assay in all cases: NCI tumour cell line growth inhibition, 48 h
HL-60(TB) leukemia = test system: HL-60(TB) leukemia
HOP-92 NSCLC = test system: HOP-92 NSCLC
HT29 colon = test system: HT29 colon
MDA-N = test system: MDA-N
MOLT-4 leukemia = test system: MOLT-4 leukemia
NCI-H226 lung = test system: NCI-H226 lung
OVCAR-3 ovarian = test system: OVCAR-3 ovarian
OVCAR-8 ovarian = test system: OVCAR-8 ovarian
RPMI-8226 leukemia = test system: RPMI-8226 leukemia
SK-MEL-5 melanoma = test system: SK-MEL-5 melanoma
SK-OV-3 ovarian = test system: SK-OV-3 ovarian
SW-620 colon = test system: SW-620 colon
T-47D breast = test system: T-47D breast
U251 CNS = test system: U251 CNS

Question: How did the TGI (HL-60(TB) leukemia) turn out when CC(C)(C)CN1[C@@H]2CCCC[C@H]2N(CC(C)(C)C)P1(=O)C(O)/C=C/c1ccccc1 (stereo not given in full) was run?
Answer: 81.1 µM

Question: And the TGI (HOP-92 NSCLC)?
Answer: 67 µM

Question: And the TGI (HT29 colon)?
Answer: > 100 µM

Question: What about the TGI (MDA-N) of the same molecule?
Answer: > 100 µM

Question: What about the TGI (MOLT-4 leukemia) of the same molecule?
Answer: > 100 µM

Question: And the TGI (NCI-H226 lung)?
Answer: 91.6 µM

Question: And the TGI (OVCAR-3 ovarian)?
Answer: > 100 µM

Question: What about the TGI (OVCAR-8 ovarian) of the same molecule?
Answer: > 100 µM

Question: And the TGI (RPMI-8226 leukemia)?
Answer: 56.1 µM

Question: What about the TGI (SK-MEL-5 melanoma) of the same molecule?
Answer: 38.9 µM

Question: What about the TGI (SK-OV-3 ovarian) of the same molecule?
Answer: > 100 µM

Question: And the TGI (SW-620 colon)?
Answer: > 100 µM

Question: And the TGI (T-47D breast)?
Answer: > 100 µM

Question: And the TGI (U251 CNS)?
Answer: > 100 µM

Question: Cc1ccc(C2=Nn3c(nc4sc5c(c4c3=O)CCCC5)SC2)cc1 was tested. Which TGI (HL-60(TB) leukemia) did it give?
Answer: > 100 µM

Question: And the TGI (HOP-92 NSCLC)?
Answer: > 100 µM

Question: What about the TGI (HT29 colon) of the same molecule?
Answer: > 100 µM

Question: And the TGI (MDA-N)?
Answer: > 100 µM

Question: What about the TGI (MOLT-4 leukemia) of the same molecule?
Answer: > 100 µM

Question: And the TGI (NCI-H226 lung)?
Answer: > 100 µM

Question: What about the TGI (OVCAR-3 ovarian) of the same molecule?
Answer: > 100 µM

Question: What about the TGI (OVCAR-8 ovarian) of the same molecule?
Answer: > 100 µM

Question: And the TGI (RPMI-8226 leukemia)?
Answer: > 100 µM

Question: What about the TGI (SK-MEL-5 melanoma) of the same molecule?
Answer: > 100 µM

Question: What about the TGI (SK-OV-3 ovarian) of the same molecule?
Answer: > 100 µM

Question: What about the TGI (SW-620 colon) of the same molecule?
Answer: > 100 µM

Question: And the TGI (T-47D breast)?
Answer: > 100 µM

Question: What about the TGI (U251 CNS) of the same molecule?
Answer: > 100 µM

Question: With COC(=O)C(CC(C)C)NC(=O)CNC(=O)C(Cc1ccc(OCc2ccccc2)cc1)NC(=O)C(COCc1ccccc1)NC(=O)OC(C)(C)C (stereo not given) (Boc-S(Bn)Y(Bn)GL-OMe; configuration not given here) as the molecule, how does the TGI (HL-60(TB) leukemia) read?
Answer: 39.7 µM

Question: What about the TGI (HOP-92 NSCLC) of the same molecule?
Answer: > 100 µM

Question: And the TGI (HT29 colon)?
Answer: > 100 µM

Question: What about the TGI (MDA-N) of the same molecule?
Answer: > 100 µM

Question: What about the TGI (MOLT-4 leukemia) of the same molecule?
Answer: > 100 µM

Question: What about the TGI (NCI-H226 lung) of the same molecule?
Answer: > 100 µM

Question: What about the TGI (OVCAR-3 ovarian) of the same molecule?
Answer: > 100 µM

Question: What about the TGI (OVCAR-8 ovarian) of the same molecule?
Answer: > 100 µM

Question: And the TGI (RPMI-8226 leukemia)?
Answer: > 100 µM

Question: And the TGI (SK-MEL-5 melanoma)?
Answer: > 100 µM

Question: What about the TGI (SK-OV-3 ovarian) of the same molecule?
Answer: > 100 µM

Question: And the TGI (SW-620 colon)?
Answer: > 100 µM

Question: And the TGI (T-47D breast)?
Answer: > 100 µM

Question: What about the TGI (U251 CNS) of the same molecule?
Answer: > 100 µM

Question: What does the source list for CC1(C)CC2C(/C1=N/O)C1(C)CCCC2(C)C1O (stereo not given)?
Answer: TGI (HL-60(TB) leukemia): > 100 µM; TGI (HOP-92 NSCLC): > 100 µM; TGI (HT29 colon): > 100 µM; TGI (MDA-N): > 100 µM; TGI (MOLT-4 leukemia): > 100 µM; TGI (NCI-H226 lung): > 100 µM; TGI (OVCAR-3 ovarian): > 100 µM; TGI (OVCAR-8 ovarian): > 100 µM; TGI (RPMI-8226 leukemia): > 100 µM; TGI (SK-MEL-5 melanoma): > 100 µM; TGI (SK-OV-3 ovarian): > 100 µM; TGI (SW-620 colon): > 100 µM; TGI (T-47D breast): > 100 µM; TGI (U251 CNS): > 100 µM

Question: For COc1cc(/C=C2\C(=O)N(c3ccc(NC(C)=O)cc3)C(c3ccccc3)S2(=O)=O)cc(OC)c1OC (stereo not given), which TGI (HL-60(TB) leukemia) is on record?
Answer: 79.1 µM

Question: What about the TGI (HOP-92 NSCLC) of the same molecule?
Answer: > 100 µM

Question: And the TGI (HT29 colon)?
Answer: > 100 µM

Question: And the TGI (MDA-N)?
Answer: > 100 µM

Question: And the TGI (MOLT-4 leukemia)?
Answer: > 100 µM

Question: And the TGI (NCI-H226 lung)?
Answer: > 100 µM

Question: And the TGI (OVCAR-3 ovarian)?
Answer: > 100 µM

Question: And the TGI (OVCAR-8 ovarian)?
Answer: > 100 µM

Question: And the TGI (RPMI-8226 leukemia)?
Answer: > 100 µM

Question: And the TGI (SK-MEL-5 melanoma)?
Answer: > 100 µM

Question: And the TGI (SK-OV-3 ovarian)?
Answer: > 100 µM

Question: What about the TGI (SW-620 colon) of the same molecule?
Answer: > 100 µM

Question: And the TGI (T-47D breast)?
Answer: > 100 µM

Question: And the TGI (U251 CNS)?
Answer: > 100 µM

Question: With CCOC(=O)C(C)c1nc2cc(C(F)(F)F)ccc2[nH]c1=O (stereo not given) as the molecule, how does the TGI (HL-60(TB) leukemia) read?
Answer: > 100 µM

Question: What about the TGI (HOP-92 NSCLC) of the same molecule?
Answer: > 100 µM

Question: What about the TGI (HT29 colon) of the same molecule?
Answer: > 100 µM

Question: What about the TGI (MDA-N) of the same molecule?
Answer: > 100 µM

Question: What about the TGI (MOLT-4 leukemia) of the same molecule?
Answer: > 100 µM

Question: And the TGI (NCI-H226 lung)?
Answer: > 100 µM

Question: What about the TGI (OVCAR-3 ovarian) of the same molecule?
Answer: > 100 µM

Question: And the TGI (OVCAR-8 ovarian)?
Answer: > 100 µM

Question: What about the TGI (RPMI-8226 leukemia) of the same molecule?
Answer: > 100 µM

Question: What about the TGI (SK-MEL-5 melanoma) of the same molecule?
Answer: > 100 µM

Question: And the TGI (SK-OV-3 ovarian)?
Answer: > 100 µM

Question: And the TGI (SW-620 colon)?
Answer: > 100 µM

Question: And the TGI (T-47D breast)?
Answer: 67.7 µM

Question: What about the TGI (U251 CNS) of the same molecule?
Answer: > 100 µM

Question: Which results are given for N#CCN1CCN(CC#N)CCN(CC#N)CCN(CC#N)CC1?
Answer: TGI (HL-60(TB) leukemia): > 100 µM; TGI (HOP-92 NSCLC): > 100 µM; TGI (HT29 colon): > 100 µM; TGI (MDA-N): > 100 µM; TGI (MOLT-4 leukemia): > 100 µM; TGI (NCI-H226 lung): > 100 µM; TGI (OVCAR-3 ovarian): > 100 µM; TGI (OVCAR-8 ovarian): > 100 µM; TGI (RPMI-8226 leukemia): > 100 µM; TGI (SK-MEL-5 melanoma): > 100 µM; TGI (SK-OV-3 ovarian): > 100 µM; TGI (SW-620 colon): > 100 µM; TGI (T-47D breast): > 100 µM; TGI (U251 CNS): > 100 µM

Question: Which TGI (HL-60(TB) leukemia) does the source give for CC(C(=O)O)C1Nc2ccccc2NC1=O (stereo not given) here?
Answer: > 100 µM

Question: And the TGI (HOP-92 NSCLC)?
Answer: > 100 µM

Question: And the TGI (HT29 colon)?
Answer: > 100 µM

Question: And the TGI (MDA-N)?
Answer: > 100 µM

Question: What about the TGI (MOLT-4 leukemia) of the same molecule?
Answer: > 100 µM

Question: And the TGI (NCI-H226 lung)?
Answer: > 100 µM

Question: What about the TGI (OVCAR-3 ovarian) of the same molecule?
Answer: > 100 µM

Question: What about the TGI (OVCAR-8 ovarian) of the same molecule?
Answer: > 100 µM

Question: And the TGI (RPMI-8226 leukemia)?
Answer: > 100 µM

Question: What about the TGI (SK-MEL-5 melanoma) of the same molecule?
Answer: > 100 µM

Question: What about the TGI (SK-OV-3 ovarian) of the same molecule?
Answer: > 100 µM

Question: And the TGI (SW-620 colon)?
Answer: > 100 µM

Question: What about the TGI (T-47D breast) of the same molecule?
Answer: > 100 µM

Question: What about the TGI (U251 CNS) of the same molecule?
Answer: > 100 µM

Question: How did the TGI (HL-60(TB) leukemia) turn out when COC(=O)/C(C#N)=C(/NCc1ccccc1)Nc1ccccc1 was run?
Answer: > 100 µM

Question: And the TGI (HOP-92 NSCLC)?
Answer: > 100 µM

Question: And the TGI (HT29 colon)?
Answer: > 100 µM

Question: What about the TGI (MDA-N) of the same molecule?
Answer: > 100 µM

Question: And the TGI (MOLT-4 leukemia)?
Answer: > 100 µM

Question: What about the TGI (NCI-H226 lung) of the same molecule?
Answer: > 100 µM

Question: And the TGI (OVCAR-3 ovarian)?
Answer: > 100 µM

Question: What about the TGI (OVCAR-8 ovarian) of the same molecule?
Answer: > 100 µM

Question: And the TGI (RPMI-8226 leukemia)?
Answer: > 100 µM

Question: What about the TGI (SK-MEL-5 melanoma) of the same molecule?
Answer: > 100 µM

Question: And the TGI (SK-OV-3 ovarian)?
Answer: > 100 µM

Question: And the TGI (SW-620 colon)?
Answer: > 100 µM

Question: What about the TGI (T-47D breast) of the same molecule?
Answer: > 100 µM

Question: And the TGI (U251 CNS)?
Answer: > 100 µM

Question: How did the TGI (HL-60(TB) leukemia) turn out when N#CCCN(CCCN(C(=O)Nc1ccc(NC(=O)N(CCCN(CCC#N)C(N)=O)c2ccccc2)cc1)c1ccccc1)C(N)=O was run?
Answer: > 100 µM

Question: What about the TGI (HOP-92 NSCLC) of the same molecule?
Answer: > 100 µM

Question: What about the TGI (HT29 colon) of the same molecule?
Answer: > 100 µM

Question: What about the TGI (MDA-N) of the same molecule?
Answer: > 100 µM

Question: And the TGI (MOLT-4 leukemia)?
Answer: > 100 µM

Question: And the TGI (NCI-H226 lung)?
Answer: > 100 µM

Question: What about the TGI (OVCAR-3 ovarian) of the same molecule?
Answer: > 100 µM

Question: What about the TGI (OVCAR-8 ovarian) of the same molecule?
Answer: > 100 µM

Question: And the TGI (RPMI-8226 leukemia)?
Answer: > 100 µM

Question: And the TGI (SK-MEL-5 melanoma)?
Answer: > 100 µM

Question: And the TGI (SK-OV-3 ovarian)?
Answer: > 100 µM

Question: What about the TGI (SW-620 colon) of the same molecule?
Answer: > 100 µM

Question: And the TGI (T-47D breast)?
Answer: > 100 µM

Question: And the TGI (U251 CNS)?
Answer: > 100 µM
